For 16 compounds, efflux ratio and EC50 results are on record in patent US10112934B2, “(Cyano-dimethyl-methyl)-isoxazoles and -[1,3,4]thiadiazoles” (Centrexion Therapeutics Corporation, priority 2013, dated 2018).

Data set [1] has as its target human MDR1 P-gp (Homo sapiens (Human), UniProt P08183). The data set can be described thus: MDCK assay: efflux in MDCK cells transfected with the human MDR1 gene (assay 3). Format: in vitro ADME. As to conditions: MDCK-MDR1 cell monolayers, pH 7.4, 37° C., read-out: MDCK efflux ratio (BA/AB). As for the experimental part:
C. Assessment of Efflux in Madin-Darby Canine Kidney Cells Transfected with the Human MDR1 Gene (MDCK Assay) (Assay 3)
Apparent permeability coefficients (PE) of the compounds across the MDCK-MDR1 cell monolayers are measured (pH 7.4, 37° C.) in apical-to-basal (AB) and basal-to-apical (BA) transport direction. AB permeability (PEAB) represents drug absorption from the blood into the brain and BA permeability (PEBA) drug efflux from the brain back into the blood via both passive permeability as well as active transport mechanisms mediated by efflux and uptake transporters that are expressed on the MDCK-MDR1 cells, predominantly by the overexpressed human MDR1 P-gp. The compounds are assigned to permeability/absorption classes by comparison of the AB permeabilities with the AB permeabilities of reference compounds with known in vitro permeability and oral absorption in the human. Identical or similar permeabilities in both transport directions indicate passive permeation, vectorial permeability points to additional active transport mechanisms. Higher PEBA than PEAB indicates the involvement of active efflux mediated by MDR1 P-gp. Active transport is concentration-dependently saturable.
MDCK-MDR1 cells (1-2×10e5 cells/1 cm2 area) are seeded on filter inserts (Costar transwell polycarbonate or PET filters, 0.4 μm pore size) and cultured (DMEM) for 7 days. Subsequently, the MDR1 expression is boosted by culturing the cells with 5 mM sodium butyrate in full medium for 2 days. Compounds are dissolved in appropriate solvent (like DMSO, 1-20 mM stock solutions). Stock solutions are diluted with HTP-4 buffer (128.13 mM NaCl, 5.36 mM KCl, 1 mM MgSO4, 1.8 mM CaCl2, 4.17 mM NaHCO3, 1.19 mM Na2HPO4×7H2O, 0.41 mM NaH2PO4×H2O, 15 mM HEPES, 20 mM glucose, 0.25% BSA, pH 7.4) to prepare the transport solutions (0.1-300 μM compound, final DMSO<=0.5%). The transport solution (TL) is applied to the apical or basolateral donor side for measuring A-B or B-A permeability (3 filter replicates), respectively. The receiver side contains the same buffer as the donor side. Samples are collected at the start and end of experiment from the donor and at various time intervals for up to 2 hours also from the receiver side for concentration measurement by HPLC-MS/MS or scintillation counting. Sampled receiver volumes are replaced with fresh receiver solution.

Data set [2] deals with human CB1R (Homo sapiens (Human), UniProt P21554). Description: CB1 cAMP (assay 2). The format is cell-based. Conditions: CHO cells expressing human CB1R; inhibition of forskolin-stimulated cAMP.
Sequence of human CB1R (P21554 whole entry): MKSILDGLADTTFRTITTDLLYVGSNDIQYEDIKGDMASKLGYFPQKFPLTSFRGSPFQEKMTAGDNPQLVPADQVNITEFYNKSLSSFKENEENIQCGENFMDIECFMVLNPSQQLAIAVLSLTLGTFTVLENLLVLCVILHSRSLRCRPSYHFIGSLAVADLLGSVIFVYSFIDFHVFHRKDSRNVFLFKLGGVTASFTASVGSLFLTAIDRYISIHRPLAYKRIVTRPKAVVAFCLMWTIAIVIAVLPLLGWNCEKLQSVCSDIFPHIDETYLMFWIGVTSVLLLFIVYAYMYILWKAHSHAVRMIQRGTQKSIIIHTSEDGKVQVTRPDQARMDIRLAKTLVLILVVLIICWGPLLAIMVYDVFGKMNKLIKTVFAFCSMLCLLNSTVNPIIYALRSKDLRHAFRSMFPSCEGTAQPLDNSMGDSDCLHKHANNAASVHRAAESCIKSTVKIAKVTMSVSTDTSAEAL

Sequence of human MDR1 P-gp (P08183 whole entry): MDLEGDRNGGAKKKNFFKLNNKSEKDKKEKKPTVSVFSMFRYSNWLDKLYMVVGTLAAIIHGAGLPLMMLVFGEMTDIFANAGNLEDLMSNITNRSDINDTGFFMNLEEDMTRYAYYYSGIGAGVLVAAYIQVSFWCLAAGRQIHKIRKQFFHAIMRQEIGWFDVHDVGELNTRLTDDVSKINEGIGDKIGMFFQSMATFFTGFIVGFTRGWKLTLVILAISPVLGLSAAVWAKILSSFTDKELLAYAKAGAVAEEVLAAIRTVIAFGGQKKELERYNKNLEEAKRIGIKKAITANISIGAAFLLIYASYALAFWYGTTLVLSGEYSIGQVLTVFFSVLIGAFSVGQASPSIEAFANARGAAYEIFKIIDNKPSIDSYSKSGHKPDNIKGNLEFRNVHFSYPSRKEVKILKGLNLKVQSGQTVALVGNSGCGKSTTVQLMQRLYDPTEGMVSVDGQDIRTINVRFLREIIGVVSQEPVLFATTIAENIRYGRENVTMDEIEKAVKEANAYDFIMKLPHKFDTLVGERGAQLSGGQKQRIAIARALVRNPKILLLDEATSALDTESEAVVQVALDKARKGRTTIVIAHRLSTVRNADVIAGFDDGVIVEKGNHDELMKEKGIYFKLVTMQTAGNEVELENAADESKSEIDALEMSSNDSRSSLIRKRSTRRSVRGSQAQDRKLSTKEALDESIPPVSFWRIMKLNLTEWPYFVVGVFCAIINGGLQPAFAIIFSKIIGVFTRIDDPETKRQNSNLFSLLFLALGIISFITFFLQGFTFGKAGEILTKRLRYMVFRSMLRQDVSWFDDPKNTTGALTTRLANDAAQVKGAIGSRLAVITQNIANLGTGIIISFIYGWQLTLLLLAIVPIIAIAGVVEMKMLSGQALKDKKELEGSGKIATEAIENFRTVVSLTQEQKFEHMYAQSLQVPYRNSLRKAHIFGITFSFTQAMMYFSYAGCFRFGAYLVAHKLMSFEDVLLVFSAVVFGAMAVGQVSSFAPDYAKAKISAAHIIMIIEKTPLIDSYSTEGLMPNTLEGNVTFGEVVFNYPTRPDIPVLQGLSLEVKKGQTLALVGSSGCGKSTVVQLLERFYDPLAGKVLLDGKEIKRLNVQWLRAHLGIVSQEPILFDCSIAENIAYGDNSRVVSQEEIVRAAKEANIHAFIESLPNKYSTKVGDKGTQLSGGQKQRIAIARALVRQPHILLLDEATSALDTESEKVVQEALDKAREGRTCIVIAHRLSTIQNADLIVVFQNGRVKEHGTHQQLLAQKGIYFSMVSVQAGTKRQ

For the compound `CN(CC1CCOCC1)C(C)(C)C(=O)Nc1cc(C(C)(C)CO)no1` [Example 7 in WO2010147792], the efflux ratio in data set [1] is 1.2.
For the compound `CC(C)(C#N)c1cc(NC(=O)C(C)(C)S(=O)(=O)C2CCOCC2)on1` [Example 3], the efflux ratio in data set [1] worked out at 2.5.
In the case of `CN(C1CCN(S(C)(=O)=O)CC1)C(C)(C)C(=O)Nc1cc(C(C)(C)C#N)no1` [Example 5], the efflux ratio in data set [1] was found to be 5.1.
As to `CC(C)(O)c1cc(NC(=O)C(C)(C)S(=O)(=O)C2CCOCC2)on1` [Example 133 WO2010036630], in data set [1], the efflux ratio was 4.7.
Consider `CN(CC1CCOCC1)C(C)(C)C(=O)Nc1nnc(C(C)(C)C#N)s1` [Example 7, N-[5-(Cyano-dimethyl-methyl)-[1,3,4]thiadiazol-2-yl]-2-methyl-2-[methyl-(tetrahydro-pyran-4-ylmethyl)-amino]-propionamide], for which the efflux ratio in data set [1] worked out at 2.1.
Still for that read-out and setting: next, `CC(C)(C#N)c1cc(NC(=O)C(C)(C)S(=O)(=O)CC2CCOCC2)on1` [Example 2, N-[3-(Cyano-dimethyl-methyl)-isoxazol-5-yl]-2-methyl-2-(tetrahydro-pyran-4-ylmethanesulfonyl)-propionamide]: 6.5.
The term EC50 denotes the concentration giving half of the maximal effect. Read a low EC50 as higher potency in that assay. In data set [2], `COCC(C)(C)c1cc(NC(=O)C(C)(C)S(=O)(=O)C2CCOCC2)on1` [Example 38 in WO2010036630] returned an EC50 of 50 µM. Moreover, in data set [1], the efflux ratio came to 2.3.
Consider `CN(CC1CCOCC1)C(C)(C)C(=O)Nc1nnc(C(C)(C)CO)s1` [Example 30 in WO2010147792], for which, in data set [1], the efflux ratio is 5.2.
Turning to `COCC(C)(C)c1cc(NC(=O)C(C)(C)S(=O)(=O)CC2CCOCC2)on1` [Example 17 in WO2010036630], in data set [1], the efflux ratio is 4.8.
The compound `CC(C)(CO)c1cc(NC(=O)C(C)(C)S(=O)(=O)CC2CCOCC2)on1` [Example 1 in WO2010036630] yielded an EC50 in data set [2] above 50 µM. Moreover, in data set [1], the efflux ratio was 16.
As to `CN(C1CCN(S(C)(=O)=O)CC1)C(C)(C)C(=O)Nc1nnc(C(C)(C)C#N)s1` [Example 8], in data set [1], the efflux ratio came out at 16.
Take `CC(C)(C#N)c1cc(NC(=O)C(C)(C)S(=O)(=O)CCCC(F)(F)F)on1` [Example 1, N-[3-(Cyano-dimethyl-methyl)-isoxazol-5-yl]-2-methyl-2-(4,4,4-trifluoro-butane-1-sulfonyl)-propionamide]: the efflux ratio in data set [1] turned out to be 2.2.
In the case of `CN(CC1CCOCC1)C(C)(C)C(=O)Nc1cc(C(C)(C)C#N)no1` [Example 4], in data set [1], the efflux ratio stood at 0.75.
Regarding `CC(C)(CO)c1cc(NC(=O)C(C)(C)S(=O)(=O)C2CCOCC2)on1` [Example 2 in WO2010036630], in data set [1], the efflux ratio was found to be 7.4.
For the compound `COCC(C)(C)c1cc(NC(=O)C(C)(C)N(C)CC2CCOCC2)on1` [Example 46 in WO2010147792], the efflux ratio in data set [1] was 0.63.
Take `CN(C1CCN(S(C)(=O)=O)CC1)C(C)(C)C(=O)Nc1cc(C(C)(C)CO)no1` [Example 47 in WO2010147792]: the efflux ratio in data set [1] worked out at 14.
